From patent US20180216060A1, “METHODS AND MEANS FOR THE MODIFICATION OF CELL SURFACES” (ACADEMISCH ZIEKENHUIS LEIDEN (ALSO ACTING UNDER THE NAME OF …, priority 2015, published 2018) come the findings set out here.

Test [1] in a line: Sensing: binding of functionalized cells to a glass slide coated with β-cyclodextrin. The settings on record: 1 h ligand incubation, 15 min on slide. The method, then: A glass slide was coated with β-cyclodextrin in a line of 400 micrometer wide. CXCR4 expressing cells (see previous examples) were incubated for 1 h with the ligand-guest compound Ac-TZ14011-Ad as discussed above and then added to the glass slide and incubated for 15 min. […] The conclusion of this experiment is that cells can be selectively found (and bound) within a solution by using the guest-host chemistry of the present invention. This enables one to purify (and at least to sense) particular types of cells within a solution and/or mixture of cells.

Test [2] deals with T1, CXCR4 receptor (Homo sapiens, UniProt P61073).
T1 construct: expressed in transfected cells; host or cells: MDA-MB-231 human breast cancer cells (MDA-GFP-CXCR4+), gift of Dr. Gary Luker
T1 sequence (P61073 whole entry): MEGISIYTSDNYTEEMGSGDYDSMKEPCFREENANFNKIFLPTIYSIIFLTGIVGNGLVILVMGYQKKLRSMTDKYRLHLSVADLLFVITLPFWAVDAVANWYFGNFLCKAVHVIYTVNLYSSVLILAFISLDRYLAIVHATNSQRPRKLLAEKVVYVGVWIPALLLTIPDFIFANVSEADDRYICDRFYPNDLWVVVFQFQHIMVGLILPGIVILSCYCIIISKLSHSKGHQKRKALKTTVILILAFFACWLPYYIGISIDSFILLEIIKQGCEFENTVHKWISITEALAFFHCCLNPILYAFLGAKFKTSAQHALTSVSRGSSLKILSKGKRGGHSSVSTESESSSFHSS
Briefly: Flow cytometry competition with Ac-TZ14011-MSAP to determine receptor affinity (KD). The settings on record: competition with Ac-TZ14011-MSAP (250 nM), MDA-GFP-CXCR4+ cells. Type of test: binding. An excerpt: The necessity of a multivalent approach was studied by direct comparison between an entity comprising polymeric host functional groups (multivalent) and a monovalent host functional group. A genetically modified MDA-MB-231 human breast cancer cell line that has the Green Fluorescent Protein (GFP) directly coupled to the overexpressed CXCR4 receptor was used to study the interactions with CXCR4 positive cells. The CXCR4 chemokine receptor is over-expressed in the membrane of many human cancer cells, but CXCR4 also play a major role in the chemotaxis of stem cells. The cyclic peptide Ac-TZ14011 is often used to target this receptor and was also chosen here as the ligand. […] The binding strength between the receptor and the peptide was determined by competition with a previously reported modified Ac-TZ14011 derivative. […] The cells were then washed two times with 1% BSA in PBS, resuspended in 1% BSA in PBS and fluorescence of the reference compound was measured by using a BD FacsCanto™ II flow cytometer with APC-Cy7 settings. Live cells were gated on forward scatter and side scatter and 10000 viable cells were analyzed. […] The KD values were calculated by using the “Binding-Competitive, One site-Fit Ki” nonlinear regression equation of GraphPad Prism. […]
MDA-GFP-CXCR4+ cells were trypsinized (using 0.5% trypsin/EDTA, BD Biosciences) and counted. […]

The structures appear in SMILES notation. Where a SMILES comes first, the peptide text is derived from it. Bridges are numbered along the chain shown (N, C = ends). [ ]: non-standard residue; d: D form. The star is where a group is joined. Adamantane1carbonyl = O=C(C12CC3CC(CC(C3)C1)C2)*; 2Nal = N[C@@H](Cc1ccc2ccccc2c1)C(=O)O; Cit = NC(=O)NCCC[C@H](N)C(=O)O

For `CC(=O)N[C@@H](CCCNC(=N)N)C(=O)N[C@@H](CCCNC(=N)N)C(=O)N[C@@H](Cc1ccc2ccccc2c1)C(=O)N[C@H]1CSSC[C@@H](C(=O)N[C@@H](CCCNC(=N)N)C(N)=O)NC(=O)[C@H](CCCNC(N)=O)NC(=O)[C@H](CCCNC(=N)N)NC(=O)[C@H](Cc2ccc(O)cc2)NC(=O)[C@@H]2CCCN2C(=O)[C@@H](CCCCNC(=O)C23CC4CC(CC(C4)C2)C3)NC(=O)[C@H](CCCNC(=N)N)NC(=O)[C@H](CCCNC(N)=O)NC(=O)[C@H](Cc2ccc(O)cc2)NC1=O` [Ac-TZ14011-Ad] (Ac-RR[2Nal]CY[Cit]R[dK](Adamantane1carbonyl)PYR[Cit]CR-NH2; disulfide 4-13), the “attachment of functionalized cells to the cyclodextrin coated area” value in test [1] is “preferentially attach”. In test [2], this compound returned a Kd of 56 nM.
